Test results as given in patent publication EP3643303A1, “COMPOUNDS FOR USE IN THE TREATMENT OR PREVENTION OF FIBROTIC DISEASES; PHARMACEUTICAL, COSMETIC COMPOSITIONS AND USES THEREOF” (InnovativeHealth Group SL, priority 2018, dated 2020).

Key:
[1] = system: normal human dermal fibroblasts (NHDFs); experiment: Collagen secretion (Sircol Soluble Collagen Assay) in TGFβ-stimulated NHDFs; format: cell-based; details: 1 h pre-treatment, TGFβ 24 h; Figure 4
Method: Next, NHDFs were used to correlate the effect of both isomers of CBD on Col1A2 transcriptional activity with collagen secretion. NHDFs were seeded in 24 well plates (5x10^4 cells/well), pre-treated with either (-)CBD or (+)CBD for 1 h and stimulated with TGFβ for the following 24 h. Collagen secretion was studied by collecting culture medium and measuring soluble collagen using the Sircol Soluble Collagen Assay (Biocolor, County Antrim, UK) following manufacturer's instructions.

[2] = molecular target: TRPV-1 (Homo sapiens, UniProt Q8NER1); experiment: Capsaicin-induced cytotoxicity (YOYO-1, Incucyte) in HEK-293T-TRPV1 cells; format: cell-based; set-up: expressed in transfected cells; host or cells: HEK-293T; details: Capsaicin 1 µM for 3 h, Figure 2B
Method: Capsaicin-induced cytotoxicity as a model of TRPV-1 agonistic assay was also investigated in HEK-293T-TRPV1 cells. The cells (2x10^4/well) were cultured in triplicate in 96-well microtiter plates in 200 µL of complete medium and incubated with (-)CBD or (+)CBD and then stimulated with the agonist Capsaicin (1 µM) for 3 h. Capzasepine (10 µM) was used as the positive control of TRPV-1 antagonism. Then, TRPV-1 induced cytotoxicity was measured by fluorescence using the die YOYO-1 (Life Technologies). YOYO-1 was diluted in cell culture medium and added to a final concentration of 0.1 µM to both experimental and control wells. YOYO-1 is a cell impermeant cyanine dimer nucleic acid stain that can only enter cells with a compromised plasma membrane and fluorescently stain the nuclear DNA. By adding YOYO-1 to damaged cells an increase in YOYO-1 fluorescence is detected. Treated cells are placed in an Incucyte FLR imaging system, and the YOYO-1 fluorescence is measured after 3 h. […] Object counting analysis is performed using the Incucyte FLR software to calculate the total number of YOYO-1 fluorescence positive cells and total DNA containing objects (end point). The cytotoxicity index is calculated by dividing the number of YOYO-1 fluorescence positive objects by the total number of DNA containing objects for each treatment group.

[3] = system: α-SMA; experiment: α-SMA expression by Western blot in TGFβ-treated NIH-3T3 cells (myofibroblast differentiation); format: cell-based; details: 1 h preincubation, TGFβ 10 ng/ml 24 h; Figure 5
Method: It is well known that TGFβ drives the conversion of fibroblasts into myofibroblasts, and the accumulation of myofibroblasts cells in fibrotic skin is a hallmark of SSc. Myofibroblasts are characterized by the novo synthesis of α-smooth muscle actin (a-SMA) fibers. To investigate α-SMA expression NIH-3T3 cells were preincubated with either (+)CBD or (-)CBD for 1 h and then treated with TFGβ (10 ng/ml) for 24 h. Cells were washed with PBS and proteins extracted in 50 µl of lysis buffer (50 mM Tris-HCl pH 7.5, 150 mM NaCl, 10% glycerol and 1% NP-40) supplemented with 10mM NaF, 1 mM Na3VO4, 10 µg/ml leupeptine, 1 µg/ml pepstatin and aprotinin, and 1 µl/ml PMSF saturated. Protein concentration was determined by the Bradford assay (Bio-Rad, CA, USA) and 30 µg of proteins were boiled at 95 °C in Laemmli buffer and electrophoresed in 10% SDS/PAGE gels. Separated proteins were transferred to PVDF membranes (20V for 30 min) and blocked in TBS solution containing 0.1% Tween 20 and 5% non-fat dry milk for 1 hour at room temperature. Immunodetection of specific proteins was carried out by incubation with primary antibody against α-SMA (1:500; sc-32251, Santa Cruz). After washing membranes, horseradish peroxidase-conjugated secondary antibody was added and detected by chemiluminescence system (GE Healthcare Europe GmbH). […]

[4] = system: anandamide hydrolysis; details: Bisogno et al. 2001; cited from earlier work
[5] = system: Nrf2 pathway; experiment: Nrf2 activation (ARE-Luc luciferase) in HaCaT-ARE-Luc keratinocytes; format: cell-based; details: 6 h, increasing concentrations; Figure 7
Source text: Nrf2 is a transcription factor which, upon activation in response to inflammatory or oxidative stress, activates a robust anti-inflammatory and cytoprotective transcription program. Therefore, Nrf2 activation may represent a novel approach for the treatment of scleroderma and other fibrotic diseases. Thus, the effect of CBD isomers on the activation of the Nrf2 pathway in the keratinocyte cell line HaCaT-ARE-Luc, containing the Nqo1 Antioxidant Response Element (ARE)-Luc reporter plasmid stably transfected, was explored. ARE is activated by all members of the CNC family of factors (Nrf1, Nrf2, Nrf3 and p45 NF-E2). The cells are cultivated in 96-well plates at the concentration of 2x10^4 cells/well in a CO2 incubator at 37°C. For induction of Nrf2 activation the cells were treated with increasing concentrations of the CBD isomers for 6 h. As a positive control the cells were treated with 0,01 mM of Tert-butyl-hydroperoxide (TBHP) for 6 h. […] Luciferase activity was measured using TriStar^2 Berthold/LB942 multimode reader (Berthold Technologies) following the instructions of the luciferase assay kit (Promega, Madison, WI, USA). The background obtained with the lysis buffer was subtracted in each experimental value, and the specific transactivation expressed as fold induction over basal levels (untreated cells).

TRPV-1, sequence (Q8NER1 whole entry): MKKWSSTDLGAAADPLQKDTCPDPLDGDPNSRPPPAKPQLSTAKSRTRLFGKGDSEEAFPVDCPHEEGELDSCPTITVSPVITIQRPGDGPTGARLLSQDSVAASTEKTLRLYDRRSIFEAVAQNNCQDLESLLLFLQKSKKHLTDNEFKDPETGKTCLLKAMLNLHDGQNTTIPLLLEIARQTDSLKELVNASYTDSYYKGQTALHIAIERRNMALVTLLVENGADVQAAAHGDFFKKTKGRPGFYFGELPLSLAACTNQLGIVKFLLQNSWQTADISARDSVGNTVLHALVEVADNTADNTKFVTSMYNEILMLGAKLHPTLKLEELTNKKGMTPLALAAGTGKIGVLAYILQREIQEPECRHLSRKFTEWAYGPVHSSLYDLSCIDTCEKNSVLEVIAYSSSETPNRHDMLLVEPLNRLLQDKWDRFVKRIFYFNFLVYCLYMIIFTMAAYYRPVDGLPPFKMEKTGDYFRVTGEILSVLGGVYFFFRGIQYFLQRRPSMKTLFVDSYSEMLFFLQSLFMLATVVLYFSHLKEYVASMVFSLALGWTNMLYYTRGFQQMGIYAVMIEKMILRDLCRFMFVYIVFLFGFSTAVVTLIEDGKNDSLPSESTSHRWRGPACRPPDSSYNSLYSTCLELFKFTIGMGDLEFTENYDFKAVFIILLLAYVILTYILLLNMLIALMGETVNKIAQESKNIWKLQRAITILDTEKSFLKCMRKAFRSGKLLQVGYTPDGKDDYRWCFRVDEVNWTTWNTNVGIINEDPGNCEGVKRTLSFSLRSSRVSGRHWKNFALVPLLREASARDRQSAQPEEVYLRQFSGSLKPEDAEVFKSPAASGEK

C=C(C)[C@H]1CCC(C)=C[C@@H]1c1c(O)cc(CCCCC)cc1O [(+)CBD, (+)Cannabidiol]
TGFβ-induced collagen release and deposition [1]: significantly inhibited | capsaicin-induced cytotoxicity (cytotoxicity index) [2]: prevent capsaicin-induced calcium mobilization | expression α-SMA protein induced by TGFβ [3]: attenuated | anandamide hydrolysis [4]: inhibited | activation of the Nrf2 pathway [5]: able to activate the Nrf2 pathway in keratinocytes and in a concentration-dependent manner

C=C(C)[C@@H]1CCC(C)=C[C@H]1c1c(O)cc(CCCCC)cc1O [(-)CBD, 2-[(1R,6R)-3-methyl-6-prop-1-en-2-ylcyclohex-2-en-1-yl]-5-pentylbenzene-1,3-diol]
TGFβ-induced collagen release and deposition [1]: significantly inhibited | capsaicin-induced cytotoxicity (cytotoxicity index) [2]: prevent capsaicin-induced calcium mobilization | expression α-SMA protein induced by TGFβ [3]: attenuated | anandamide hydrolysis [4]: inhibited | activation of the Nrf2 pathway [5]: able to activate the Nrf2 pathway in keratinocytes and in a concentration-dependent manner
